Values quoted from earlier work, collected in patent EP0893690B1, “Detection of mycotoxins by flow-through membrane-based enzyme immunoassay” (priority 1997, dated 1999).

What was measured:
[1] = target: monoclonal anti-OA antibody (IgG1 with kappa light chains); conditions: association constant of the anti-OA antibody for its antigen OA; read-out: affinity constant (converted)
[2] = system: monoclonal anti-OA antibody (IgG1 with kappa light chains); conditions: relative to OA; called weak

| SMILES | Kd [1] [pM] | cross-reaction [2] [%] |
| --- | --- | --- |
| C[C@@H]1Cc2c(Cl)cc(C(=O)N[C@@H](Cc3ccccc3)C(=O)O)c(O)c2C(=O)O1 [OA, ochratoxin A] | 128 | – |
| C[C@@H]1Cc2ccc(C(=O)N[C@@H](Cc3ccccc3)C(=O)O)c(O)c2C(=O)O1 [ochratoxin B] | – | 9.3 |
